From BindingDB's records for doi:10.1021/jm801354e (University of Illinois At Chicago, 2009)
Where a name gives a salt, the structure may show the parent alone.

molecular target: T1, 5-hydroxytryptamine receptor 2C (Homo sapiens, UniProt P28335); experiment: Agonist activity at human 5HT2C receptor expressed in HEK293 cells assessed as calcium flux by FLIPR assay
T1 sequence (P28335 whole entry): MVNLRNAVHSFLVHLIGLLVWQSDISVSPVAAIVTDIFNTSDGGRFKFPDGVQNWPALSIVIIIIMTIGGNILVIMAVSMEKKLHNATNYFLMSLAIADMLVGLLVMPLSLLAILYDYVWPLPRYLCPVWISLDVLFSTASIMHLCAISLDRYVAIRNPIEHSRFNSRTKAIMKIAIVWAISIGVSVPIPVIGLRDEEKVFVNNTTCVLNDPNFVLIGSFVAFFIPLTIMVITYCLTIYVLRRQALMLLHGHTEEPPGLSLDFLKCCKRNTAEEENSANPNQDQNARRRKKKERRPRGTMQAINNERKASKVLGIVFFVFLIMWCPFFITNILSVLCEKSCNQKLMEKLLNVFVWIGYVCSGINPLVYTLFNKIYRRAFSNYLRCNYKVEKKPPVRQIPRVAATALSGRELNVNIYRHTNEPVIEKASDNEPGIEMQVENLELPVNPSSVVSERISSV

Compared with NC[C@H]1C[C@@H]1c1cccc(C(F)(F)F)c1 (relative stereo) [trans-[2-(3-Trifluoromethylphenyl)cyclopropyl]methylamine Hydrochloride], NC[C@H]1C[C@@H]1c1cccc(Br)c1 (relative stereo) [trans-[2-(3-Bromophenyl)cyclopropyl]methylamine Hydrochloride] is 2.1-fold lower in EC50: 30 nM for the first, 14 nM for the second. The second is the more potent here.

Compared with NC[C@H]1C[C@@H]1c1cccc(Cl)c1Cl (relative stereo) [trans-[2-(2,3-Dichlorophenyl)cyclopropyl]methylamine Hydrochloride], NC[C@H]1C[C@@H]1c1ccc(Cl)cc1Cl (relative stereo) [trans-[2-(2,4-Dichlorophenyl)cyclopropyl]methylamine Hydrochloride] is 1.6-fold higher in EC50: 11 nM for the first, 18 nM for the second.

Going from NC[C@H]1C[C@@H]1c1ccc(F)cc1 (relative stereo) [trans-[2-(4-Fluorophenyl)cyclopropyl]methylamine Hydrochloride] to NC[C@H]1C[C@@H]1c1ccc(Br)cc1 (relative stereo) [trans-[2-(4-Bromophenyl)cyclopropyl]methylamine Hydrochloride], the EC50 rises from 5.4 nM to 138 nM (26-fold).

Compared with NC[C@H]1C[C@@H]1c1ccccc1F [trans-[2-(2-Fluorophenyl)cyclopropyl]methylamine Hydrochloride], NC[C@H]1C[C@@H]1c1ccccc1Cl (relative stereo) [trans-[2-(2-Chlorophenyl)cyclopropyl]methylamine Hydrochloride] is 5.7-fold lower in EC50: 29 nM for the first, 5.1 nM for the second.

First: NC[C@H]1C[C@@H]1c1ccc(F)cc1F [trans-[2-(2,4-Difluorophenyl)cyclopropyl]methylamine Hydrochloride]
Second: NC[C@H]1C[C@@H]1c1ccc(F)c(F)c1 (relative stereo) [trans-[2-(3,4-Difluorophenyl)cyclopropyl]methylamine Hydrochloride]
The EC50 of the first is 4.7-fold higher: 42 nM for the first, 9 nM for the second. The second is the more potent here.

Going from c1ccc(CNC[C@H]2C[C@@H]2c2ccccc2)cc1 (relative stereo) [trans-N-Benzyl-(2-phenylcyclopropylmethyl)amine] to CNC[C@H]1C[C@@H]1c1ccccc1 (relative stereo) [trans-N-Methyl-(2-phenylcyclopropylmethyl)amine], the EC50 falls from 5700 nM to 634 nM (9-fold).

NC[C@H]1C[C@@H]1c1cccc(O)c1 (relative stereo) [trans-[2-(3-Hydroxyphenyl)cyclopropyl]methylamine Hydrochloride] and Cc1cccc([C@H]2C[C@@H]2CN)c1 (relative stereo) [trans-[2-(3-Methylphenyl)cyclopropyl]methylamine Hydrochloride] are within 1.5-fold of each other in EC50: 3.3 nM for the first, 4.8 nM for the second.

First: NC[C@H]1C[C@@H]1c1ccccc1C(F)(F)F (relative stereo) [trans-[2-(2-Trifluoromethylphenyl)cyclopropyl]methylamine Hydrochloride]
Second: Cc1ccccc1[C@H]1C[C@@H]1CN (relative stereo) [trans-[2-(2-Methylphenyl)cyclopropyl]methylamine Hydrochloride]
The EC50 of the first is 2.1-fold higher: 49 nM for the first, 23 nM for the second. The second is the more potent here.

NC[C@H]1C[C@@H]1c1ccc(Cl)cc1 (relative stereo) [trans-[2-(4-Chlorophenyl)cyclopropyl]methylamine Hydrochloride] and Cc1ccc([C@H]2C[C@@H]2CN)c(Br)c1 (relative stereo) [trans-[2-(2-Bromo-4-methylphenyl)cyclopropyl]methylamine Hydrochloride] are within 1.5-fold of each other in EC50: 76 nM for the first, 97 nM for the second.

molecular target: T2, 5-hydroxytryptamine receptor 2B (Homo sapiens, UniProt P41595); experiment: Displacement of [3H]LSD from human 5HT2B receptor
T2 sequence (P41595 whole entry): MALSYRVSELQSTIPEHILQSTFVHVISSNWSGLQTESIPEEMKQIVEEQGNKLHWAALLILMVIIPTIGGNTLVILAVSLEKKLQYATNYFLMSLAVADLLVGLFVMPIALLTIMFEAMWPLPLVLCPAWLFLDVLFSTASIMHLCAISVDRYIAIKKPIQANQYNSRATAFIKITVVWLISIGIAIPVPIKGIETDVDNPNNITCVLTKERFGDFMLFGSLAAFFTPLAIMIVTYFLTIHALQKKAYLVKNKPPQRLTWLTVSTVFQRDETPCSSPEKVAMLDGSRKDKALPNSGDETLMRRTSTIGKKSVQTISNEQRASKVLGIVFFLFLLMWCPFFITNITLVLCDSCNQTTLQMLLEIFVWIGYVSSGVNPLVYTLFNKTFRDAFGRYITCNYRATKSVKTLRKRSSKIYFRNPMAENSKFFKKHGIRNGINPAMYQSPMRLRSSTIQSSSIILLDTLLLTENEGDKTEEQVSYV

NC[C@H]1C[C@@H]1c1ccc(F)cc1 (relative stereo) [trans-[2-(4-Fluorophenyl)cyclopropyl]methylamine Hydrochloride] and Cc1cccc([C@H]2C[C@@H]2CN)c1 (relative stereo) [trans-[2-(3-Methylphenyl)cyclopropyl]methylamine Hydrochloride] are within 1.5-fold of each other in Ki: 89 nM for the first, 85 nM for the second.

molecular target: T1, 5-hydroxytryptamine receptor 2C; experiment: Displacement of [3H]mesulergine from 5HT2C receptor

NC[C@H]1C[C@@H]1c1ccc(F)cc1 (relative stereo) [trans-[2-(4-Fluorophenyl)cyclopropyl]methylamine Hydrochloride] and Cc1cccc([C@H]2C[C@@H]2CN)c1 (relative stereo) [trans-[2-(3-Methylphenyl)cyclopropyl]methylamine Hydrochloride] are within 1.5-fold of each other in Ki: 242 nM for the first, 268 nM for the second.

molecular target: T3, 5-hydroxytryptamine receptor 2A (Homo sapiens, UniProt P28223); experiment: Displacement of [3H]ketanserin from human 5HT2A receptor
T3 sequence (P28223 whole entry): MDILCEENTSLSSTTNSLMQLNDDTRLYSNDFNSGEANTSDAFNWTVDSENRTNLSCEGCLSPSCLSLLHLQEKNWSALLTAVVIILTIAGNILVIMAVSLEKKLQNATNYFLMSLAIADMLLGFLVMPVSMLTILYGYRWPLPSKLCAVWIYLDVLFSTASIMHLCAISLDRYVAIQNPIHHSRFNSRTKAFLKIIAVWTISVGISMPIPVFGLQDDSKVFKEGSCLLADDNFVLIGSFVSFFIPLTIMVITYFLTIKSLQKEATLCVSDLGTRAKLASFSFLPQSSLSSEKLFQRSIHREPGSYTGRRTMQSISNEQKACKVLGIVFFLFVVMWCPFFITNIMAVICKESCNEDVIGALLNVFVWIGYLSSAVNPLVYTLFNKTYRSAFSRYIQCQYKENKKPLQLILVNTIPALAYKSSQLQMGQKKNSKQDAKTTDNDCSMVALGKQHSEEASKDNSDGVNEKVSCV

First: NC[C@H]1C[C@@H]1c1ccc(F)cc1 (relative stereo) [trans-[2-(4-Fluorophenyl)cyclopropyl]methylamine Hydrochloride]
Second: Cc1cccc([C@H]2C[C@@H]2CN)c1 (relative stereo) [trans-[2-(3-Methylphenyl)cyclopropyl]methylamine Hydrochloride]
The Ki of the first is 1.5-fold higher: 2780 nM for the first, 1850 nM for the second.

molecular target: Sodium-dependent dopamine transporter (Homo sapiens, UniProt Q01959); experiment: Displacement of [3H]WIN-35428 from DAT
Sequence (Q01959 whole entry): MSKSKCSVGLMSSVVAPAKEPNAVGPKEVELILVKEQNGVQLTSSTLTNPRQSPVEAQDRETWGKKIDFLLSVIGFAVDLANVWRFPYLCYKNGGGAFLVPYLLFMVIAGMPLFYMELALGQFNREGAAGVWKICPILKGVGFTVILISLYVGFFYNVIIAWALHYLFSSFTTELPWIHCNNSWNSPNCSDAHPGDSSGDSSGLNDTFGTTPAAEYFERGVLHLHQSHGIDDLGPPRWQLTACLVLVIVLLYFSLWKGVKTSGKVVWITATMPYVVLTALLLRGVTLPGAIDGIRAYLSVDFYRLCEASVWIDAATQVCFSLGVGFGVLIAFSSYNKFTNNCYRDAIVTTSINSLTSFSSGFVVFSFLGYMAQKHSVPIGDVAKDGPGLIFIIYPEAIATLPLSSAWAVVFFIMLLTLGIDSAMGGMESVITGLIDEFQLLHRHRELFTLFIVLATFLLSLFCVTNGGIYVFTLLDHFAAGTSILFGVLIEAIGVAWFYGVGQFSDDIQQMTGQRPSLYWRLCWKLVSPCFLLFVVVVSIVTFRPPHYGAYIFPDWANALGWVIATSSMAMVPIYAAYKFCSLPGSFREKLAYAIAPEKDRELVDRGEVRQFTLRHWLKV

First: NC[C@H]1C[C@@H]1c1ccc(F)cc1 (relative stereo) [trans-[2-(4-Fluorophenyl)cyclopropyl]methylamine Hydrochloride]
Second: Cc1cccc([C@H]2C[C@@H]2CN)c1 (relative stereo) [trans-[2-(3-Methylphenyl)cyclopropyl]methylamine Hydrochloride]
The Ki of the first is 1.7-fold lower: 3260 nM for the first, 5400 nM for the second. The first binds more tightly here.

molecular target: T3, 5-hydroxytryptamine receptor 2A; experiment: Agonist activity at human 5HT2A receptor expressed in HEK293 cells assessed as calcium flux by FLIPR assay

NC[C@H]1C[C@@H]1c1cccc(C(F)(F)F)c1 (relative stereo) [trans-[2-(3-Trifluoromethylphenyl)cyclopropyl]methylamine Hydrochloride] and NC[C@H]1C[C@@H]1c1cccc(Br)c1 (relative stereo) [trans-[2-(3-Bromophenyl)cyclopropyl]methylamine Hydrochloride] are within 1.5-fold of each other in EC50: 1480 nM for the first, 1680 nM for the second.

Compared with NC[C@H]1C[C@@H]1c1cccc(Cl)c1Cl (relative stereo) [trans-[2-(2,3-Dichlorophenyl)cyclopropyl]methylamine Hydrochloride], NC[C@H]1C[C@@H]1c1ccc(Cl)cc1Cl (relative stereo) [trans-[2-(2,4-Dichlorophenyl)cyclopropyl]methylamine Hydrochloride] is 6.8-fold lower in EC50: 349 nM for the first, 51 nM for the second. The second is the more potent here.

First: NC[C@H]1C[C@@H]1c1ccc(F)cc1 (relative stereo) [trans-[2-(4-Fluorophenyl)cyclopropyl]methylamine Hydrochloride]
Second: NC[C@H]1C[C@@H]1c1ccc(Br)cc1 (relative stereo) [trans-[2-(4-Bromophenyl)cyclopropyl]methylamine Hydrochloride]
The EC50 of the first is lower: 508 nM for the first, over 1000 nM for the second.

NC[C@H]1C[C@@H]1c1ccc(F)cc1F [trans-[2-(2,4-Difluorophenyl)cyclopropyl]methylamine Hydrochloride] and NC[C@H]1C[C@@H]1c1ccc(F)c(F)c1 (relative stereo) [trans-[2-(3,4-Difluorophenyl)cyclopropyl]methylamine Hydrochloride] are within 1.5-fold of each other in EC50: 547 nM for the first, 578 nM for the second.

Compared with NC[C@H]1C[C@@H]1c1cccc(O)c1 (relative stereo) [trans-[2-(3-Hydroxyphenyl)cyclopropyl]methylamine Hydrochloride], Cc1cccc([C@H]2C[C@@H]2CN)c1 (relative stereo) [trans-[2-(3-Methylphenyl)cyclopropyl]methylamine Hydrochloride] is 2.4-fold higher in EC50: 247 nM for the first, 585 nM for the second. The first is the more potent here.

First: NC[C@H]1C[C@@H]1c1ccccc1Cl (relative stereo) [trans-[2-(2-Chlorophenyl)cyclopropyl]methylamine Hydrochloride]
Second: Cc1ccccc1[C@H]1C[C@@H]1CN (relative stereo) [trans-[2-(2-Methylphenyl)cyclopropyl]methylamine Hydrochloride]
The EC50 of the first is 9.6-fold lower: 168 nM for the first, 1610 nM for the second.

First: NC[C@H]1C[C@@H]1c1ccc(Cl)cc1 (relative stereo) [trans-[2-(4-Chlorophenyl)cyclopropyl]methylamine Hydrochloride]
Second: Cc1ccc([C@H]2C[C@@H]2CN)c(Br)c1 (relative stereo) [trans-[2-(2-Bromo-4-methylphenyl)cyclopropyl]methylamine Hydrochloride]
The EC50 of the first is 9.6-fold higher: 4480 nM for the first, 465 nM for the second.

molecular target: T2, 5-hydroxytryptamine receptor 2B; experiment: Agonist activity at human 5HT2B receptor expressed in HEK293 cells assessed as calcium flux by FLIPR assay

First: NC[C@H]1C[C@@H]1c1cccc(C(F)(F)F)c1 (relative stereo) [trans-[2-(3-Trifluoromethylphenyl)cyclopropyl]methylamine Hydrochloride]
Second: NC[C@H]1C[C@@H]1c1cccc(Br)c1 (relative stereo) [trans-[2-(3-Bromophenyl)cyclopropyl]methylamine Hydrochloride]
The EC50 of the first is 1.8-fold lower: 77 nM for the first, 141 nM for the second.

Going from NC[C@H]1C[C@@H]1c1cccc(Cl)c1Cl (relative stereo) [trans-[2-(2,3-Dichlorophenyl)cyclopropyl]methylamine Hydrochloride] to NC[C@H]1C[C@@H]1c1ccc(Cl)cc1Cl (relative stereo) [trans-[2-(2,4-Dichlorophenyl)cyclopropyl]methylamine Hydrochloride], the EC50 rises from 14 nM to 83 nM (5.9-fold). The first is the more potent here.

Going from NC[C@H]1C[C@@H]1c1ccc(F)cc1 (relative stereo) [trans-[2-(4-Fluorophenyl)cyclopropyl]methylamine Hydrochloride] to NC[C@H]1C[C@@H]1c1ccc(Br)cc1 (relative stereo) [trans-[2-(4-Bromophenyl)cyclopropyl]methylamine Hydrochloride], the EC50 rises from 21 nM to 2740 nM (130-fold).

First: NC[C@H]1C[C@@H]1c1ccccc1F [trans-[2-(2-Fluorophenyl)cyclopropyl]methylamine Hydrochloride]
Second: NC[C@H]1C[C@@H]1c1ccccc1Cl (relative stereo) [trans-[2-(2-Chlorophenyl)cyclopropyl]methylamine Hydrochloride]
The EC50 of the first is 2.2-fold higher: 69 nM for the first, 32 nM for the second.

Going from NC[C@H]1C[C@@H]1c1ccc(F)cc1F [trans-[2-(2,4-Difluorophenyl)cyclopropyl]methylamine Hydrochloride] to NC[C@H]1C[C@@H]1c1ccc(F)c(F)c1 (relative stereo) [trans-[2-(3,4-Difluorophenyl)cyclopropyl]methylamine Hydrochloride], the EC50 falls from 415 nM to 28 nM (15-fold).

First: NC[C@H]1C[C@@H]1c1cccc(O)c1 (relative stereo) [trans-[2-(3-Hydroxyphenyl)cyclopropyl]methylamine Hydrochloride]
Second: Cc1cccc([C@H]2C[C@@H]2CN)c1 (relative stereo) [trans-[2-(3-Methylphenyl)cyclopropyl]methylamine Hydrochloride]
The EC50 of the first is 12-fold lower: 5.5 nM for the first, 65 nM for the second.

Going from CNC[C@H]1C[C@@H]1c1ccccc1 (relative stereo) [trans-N-Methyl-(2-phenylcyclopropylmethyl)amine] to Cc1ccccc1[C@H]1C[C@@H]1CN (relative stereo) [trans-[2-(2-Methylphenyl)cyclopropyl]methylamine Hydrochloride], the EC50 falls from over 10000 nM to 53 nM.

First: NC[C@H]1C[C@@H]1c1ccccc1C(F)(F)F (relative stereo) [trans-[2-(2-Trifluoromethylphenyl)cyclopropyl]methylamine Hydrochloride]
Second: Cc1ccc([C@H]2C[C@@H]2CN)c(Br)c1 (relative stereo) [trans-[2-(2-Bromo-4-methylphenyl)cyclopropyl]methylamine Hydrochloride]
The EC50 of the first is 3-fold higher: 350 nM for the first, 116 nM for the second.

Compound NC[C@H]1C[C@@H]1c1ccc(Cl)cc1 (relative stereo) [trans-[2-(4-Chlorophenyl)cyclopropyl]methylamine Hydrochloride] has an EC50 of 404 nM.

molecular target: Sodium-dependent serotonin transporter (Homo sapiens, UniProt P31645); experiment: Displacement of [3H]citalopram from SERT
Sequence (P31645 whole entry): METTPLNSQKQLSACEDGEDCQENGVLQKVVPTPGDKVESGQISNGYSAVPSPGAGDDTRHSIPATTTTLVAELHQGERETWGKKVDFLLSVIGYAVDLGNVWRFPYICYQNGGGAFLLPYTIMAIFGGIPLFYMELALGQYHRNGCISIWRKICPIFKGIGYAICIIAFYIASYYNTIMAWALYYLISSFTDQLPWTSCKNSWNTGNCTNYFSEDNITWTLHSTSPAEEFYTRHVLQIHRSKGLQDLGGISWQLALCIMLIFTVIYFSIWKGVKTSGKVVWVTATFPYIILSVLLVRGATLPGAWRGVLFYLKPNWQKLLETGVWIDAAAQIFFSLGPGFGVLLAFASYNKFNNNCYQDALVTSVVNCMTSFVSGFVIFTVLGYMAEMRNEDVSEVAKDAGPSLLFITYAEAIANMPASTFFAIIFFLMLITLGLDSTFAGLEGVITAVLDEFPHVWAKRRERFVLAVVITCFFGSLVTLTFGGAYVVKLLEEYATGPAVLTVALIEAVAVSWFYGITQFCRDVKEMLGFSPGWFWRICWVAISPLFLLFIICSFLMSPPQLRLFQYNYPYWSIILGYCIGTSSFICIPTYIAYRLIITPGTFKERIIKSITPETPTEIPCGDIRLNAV

Going from NC[C@H]1C[C@@H]1c1ccc(F)cc1 (relative stereo) [trans-[2-(4-Fluorophenyl)cyclopropyl]methylamine Hydrochloride] to Cc1cccc([C@H]2C[C@@H]2CN)c1 (relative stereo) [trans-[2-(3-Methylphenyl)cyclopropyl]methylamine Hydrochloride], the Ki rises from 2710 nM to 5440 nM (2-fold). The first binds more tightly here.

molecular target: Sodium-dependent noradrenaline transporter (Homo sapiens, UniProt P23975); experiment: Displacement of [3H]nisoxetine from NET
Sequence (P23975 whole entry): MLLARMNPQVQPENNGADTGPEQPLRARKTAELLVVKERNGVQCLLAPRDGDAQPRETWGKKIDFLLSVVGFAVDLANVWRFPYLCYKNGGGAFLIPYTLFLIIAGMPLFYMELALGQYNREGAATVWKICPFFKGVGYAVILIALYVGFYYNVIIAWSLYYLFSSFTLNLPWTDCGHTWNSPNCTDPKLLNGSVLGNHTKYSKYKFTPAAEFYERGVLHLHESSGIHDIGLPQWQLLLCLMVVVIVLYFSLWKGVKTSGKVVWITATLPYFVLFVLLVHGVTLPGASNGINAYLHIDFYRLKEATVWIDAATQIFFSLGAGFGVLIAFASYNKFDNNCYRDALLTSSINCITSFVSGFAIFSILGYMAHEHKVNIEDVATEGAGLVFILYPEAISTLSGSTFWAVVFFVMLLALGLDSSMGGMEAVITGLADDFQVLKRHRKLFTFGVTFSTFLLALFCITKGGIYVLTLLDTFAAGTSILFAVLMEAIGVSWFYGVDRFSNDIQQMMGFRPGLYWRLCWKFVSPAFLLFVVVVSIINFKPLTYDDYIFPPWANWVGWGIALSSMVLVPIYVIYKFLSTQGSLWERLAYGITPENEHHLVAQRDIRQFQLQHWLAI

First: NC[C@H]1C[C@@H]1c1ccc(F)cc1 (relative stereo) [trans-[2-(4-Fluorophenyl)cyclopropyl]methylamine Hydrochloride]
Second: Cc1cccc([C@H]2C[C@@H]2CN)c1 (relative stereo) [trans-[2-(3-Methylphenyl)cyclopropyl]methylamine Hydrochloride]
The Ki of the first is lower: 6780 nM for the first, over 10000 nM for the second.
